Experimental data taken from ChEMBL document CHEMBL5120764, “Isarubrolone C Promotes Autophagic Degradation of Virus Proteins via Activating ATG10S in HepG2 Cells” (J Nat Prod, 2022).
Calls of active or inactive are those of the source.

What was measured:
Format in all cases: functional, cell-based
HepG2 [1] = assay: Induction of autophagy in human HepG2 cells co-transfected with ZIKV-NS5 assessed as decrease in ZIKV-NS5 protein level upto 10 uM and measured after 6 hrs by western blot analysis; settings: DDE = dose-dependent effect
HepG2 [2] = assay: Induction of autophagy in human HepG2 cells assessed as […] in LC3B marker expression level upto 10 uM and measured after 6 hrs by western blot analysis; settings: DDE = dose-dependent effect
HepG2 [3] = assay: Induction of autophagy in human HepG2 cells assessed as decrease in P62 expression level upto 10 uM and measured after 6 hrs by western blot analysis; settings: DDE = dose-dependent effect
HepG2 [4] = assay: Induction of autophagy in human HepG2 cells assessed as increase in IL28A protein level upto 10 uM and measured after 6 hrs by western blot analysis; settings: DDE = dose-dependent effect
HepG2 [5] = assay: Upregulation of IL28A mRNA expression level in human HepG2 cells transfected with ZIKV-NS5 upto 10 uM by qRT-PCR analysis; settings: DDE = dose-dependent effect
HepG2 [6] = assay: Effect on HBx degradation in human HepG2 cells transfected with HBx at 10 uM pretreated with proteosome inhibitor MG132 for 12 hrs followed by compound addition and measured after 24 hrs by western blot analysis
HepG2 [7] = assay: Induction of autophagy in human HepG2 cells transfected with HCV subgenomic replicon assessed as HCV-NS5B/LAMP2 combination at 10 uM incubated for 24 hrs in presence of anti-LAMP2 antibodies by co-immunoprecipitation assay
HepG2 [8] = assay: Induction of autophagy in human HepG2 cells transfected with HCV subgenomic replicon assessed as HCV-CORE/LAMP2 combination at 10 uM incubated for 24 hrs in presence of anti-LAMP2 antibodies by co-immunoprecipitation assay
HepG2 [9] = assay: Induction of autophagy in human HepG2 cells transfected with HCV subgenomic replicon assessed as HCV-CORE/LC3B combination at 10 uM incubated for 24 hrs in presence of anti-LAMP2 antibodies by co-immunoprecipitation assay
HepG2 [10] = assay: Induction of autophagy in human HepG2 cells transfected with HCV subgenomic replicon assessed as HCV-CORE/P62 combination at 10 uM incubated for 24 hrs in presence of anti-LAMP2 antibodies by co-immunoprecipitation assay
HepG2 [11] = assay: Induction of autophagy in human HepG2 cells transfected with HCV subgenomic replicon assessed as HCV-NS5B/P62 combination at 10 uM incubated for 24 hrs in presence of anti-LC3B antibodies by co-immunoprecipitation assay
HepG2 [12] = assay: Downregulation of HIV-RT in human HepG2 cells co-transfected with HIV-RT and ATG10-misMO upto 10 uM incubated for 24 hrs by western blot analysis
HepG2 [13] = assay: Downregulation of HCV-NS5B in human HepG2 cells transfected with HCV-subreplicon upto 10 uM incubated for 24 hrs by western blot analysis
HepG2 [14] = assay: Downregulation of HCV-CORE in human HepG2 cells transfected with HCV-subreplicon upto 10 uM incubated for 24 hrs by western blot analysis
HepG2 [15] = assay: Downregulation of HBVx in human HepG2 cells transfected with HBVx upto 10 uM incubated for 24 hrs by western blot analysis
HepG2 [16] = assay: Downregulation of ZIKV-NS5 in human HepG2 cells transfected with ZIKV-NS5 upto 10 uM incubated for 24 hrs by western blot analysis
HepG2 [17] = assay: Upregulation of endogenous ATG10S activated co-localisation of HBx with LC3B in human HepG2 cells co-transfected with HBx and ATG10-sMO by cellular immunofluorescence assay
HepG2 [18] = assay: Upregulation of endogenous ATG10S activated co-localisation of HIV-RT with LC3B in human HepG2 cells co-transfected with HIV-RT and ATG10-sMO by cellular immunofluorescence assay
HepG2 [19] = assay: Upregulation of endogenous ATG10S activated co-localisation of ZIKV-NS5 with LC3B in human HepG2 cells co-transfected with ZIKV-NS5 and ATG10-misMO by cellular immunofluorescence assay
HepG2 [20] = assay: Upregulation of endogenous ATG10S activated co-localisation of ZIKV-NS5 with LAMP2 in human HepG2 cells co-transfected with ZIKV-NS5 and ATG10-sMO by cellular immunofluorescence assay
HepG2 [21] = assay: Upregulation of IL28A mRNA expression level in human HepG2 cells transfected with HIV-RT upto 10 uM by qRT-PCR analysis; settings: DDE = dose-dependent effect
HepG2 [22] = assay: Induction of autophagy in human HepG2 cells co-transfected with ATG10 or ATG10S assessed as increase in ATG10/ATG10S protein level upto 10 uM and measured after 6 hrs by western blot analysis; settings: DDE = dose-dependent effect
HepG2 [23] = assay: Induction of autophagy in human HepG2 cells transfected with HBx assessed as increase in HBx-P62 interaction level at 10 uM incubated for 24 hrs in presence of anti-Flag antibodies by co-immunoprecipitation assay
HepG2 [24] = assay: Induction of autophagy in human HepG2 cells transfected with HBx assessed as increase in HBx-LAMP2 interaction level at 10 uM incubated for 24 hrs in presence of anti-Flag antibodies by co-immunoprecipitation assay
HepG2 [25] = assay: Induction of autophagy in human HepG2 cells transfected with HCV subgenomic replicon assessed as HCV-NS5B/LAMP2 combination at 10 uM incubated for 24 hrs in presence of anti-LC3B antibodies by co-immunoprecipitation assay
HepG2 [26] = assay: Upregulation of ATG10/ATG10S mRNA level in human HepG2 cells transfected with HIV-RT upto 10 uM by RT-PCR analysis; settings: DDE = dose-dependent effect
HepG2 [27] = assay: Upregulation of endogenous ATG10S activated co-localisation of HCV-NS5B with LC3B in human HepG2 cells co-transfected with HCV sub-replicon and ATG10-misMO by cellular immunofluorescence assay
HepG2 [28] = assay: Upregulation of endogenous ATG10S activated co-localisation of HCV-NS5B with LAMP2 in human HepG2 cells co-transfected with HCV sub-replicon and ATG10-misMO by cellular immunofluorescence assay
HepG2 [29] = assay: Upregulation of IL28A mRNA expression level in human HepG2 cells transfected with HBV-X upto 10 uM by qRT-PCR analysis; settings: DDE = dose-dependent effect
HepG2 [30] = assay: Upregulation of HCV-NS5B in human HepG2 cells transfected with HCV sub-replicon and gene knockdown by IL28A morpholinos at 10 uM incubated for 24 hrs by western blot analysis
HepG2 [31] = assay: Upregulation of HCV-CORE in human HepG2 cells transfected with HCV sub-replicon and gene knockdown by IL28A morpholinos at 10 uM incubated for 24 hrs by western blot analysis
HepG2 [32] = assay: Upregulation of ZIKV-NS5 in human HepG2 cells transfected with ZIKV-NS5 and gene knockdown by IL28A morpholinos at 10 uM incubated for 24 hrs by western blot analysis
HepG2 [33] = assay: Upregulation of LC3B in human HepG2 cells transfected with HIV-RT and gene knockdown by IL28A morpholinos at 10 uM incubated for 24 hrs by western blot analysis

Measured: Activity

CC[C@@H](O)c1nc(C)cc2c1C(=O)c1cc(=O)c3c(c(O)c1-2)O[C@@H]1O[C@H](C)[C@@H](OC)[C@@H](O)[C@]31O
active: HepG2 [1] Dde | HepG2 [2] Dde | HepG2 [3] Dde | HepG2 [4] Dde | HepG2 [5] Dde | HepG2 [6] | HepG2 [7] | HepG2 [8] | HepG2 [9] | HepG2 [10] | HepG2 [11] | HepG2 [12] | HepG2 [13] | HepG2 [14] | HepG2 [15] | HepG2 [16] | HepG2 [17] | HepG2 [18] | HepG2 [19] | HepG2 [20] | HepG2 [21] Dde | HepG2 [22] Dde | HepG2 [23] | HepG2 [24] | HepG2 [25] | HepG2 [26] Dde | HepG2 [27] | HepG2 [28] | HepG2 [29] Dde | HepG2 [30] | HepG2 [31] | HepG2 [32] | HepG2 [33]
